The target in test [1] is T1, human GLP-1 R (Homo sapiens, UniProt P43220).
T1 construct: expressed in transfected cells
Briefly: Human GLP-1 receptor (GLP-1 R) activity assay, cAMP induction (AlphaScreen cAMP kit). It is filed as cell-based. The following applies: HEK293 cells expressing the human GLP-1 R, 15 min at 37° C., average values of multiple determinations, read-out: GLP1 R (EC50 in nM). In outline: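 Stable HEK293 clones expressing human GIP R or GLP-1 R, grown 1 day, washed in Tyrode's buffer (10 mM HEPES, pH 7.4), then stimulated with peptide. Cells lysed and cAMP quantified by AlphaScreen competition with biotinylated cAMP, 1 h dark incubation at room temperature.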

Test [2] concerns the target T2, human GIP R (Homo sapiens, UniProt P48546).
T2 construct: expressed in transfected cells
T2 sequence (P48546 22-466): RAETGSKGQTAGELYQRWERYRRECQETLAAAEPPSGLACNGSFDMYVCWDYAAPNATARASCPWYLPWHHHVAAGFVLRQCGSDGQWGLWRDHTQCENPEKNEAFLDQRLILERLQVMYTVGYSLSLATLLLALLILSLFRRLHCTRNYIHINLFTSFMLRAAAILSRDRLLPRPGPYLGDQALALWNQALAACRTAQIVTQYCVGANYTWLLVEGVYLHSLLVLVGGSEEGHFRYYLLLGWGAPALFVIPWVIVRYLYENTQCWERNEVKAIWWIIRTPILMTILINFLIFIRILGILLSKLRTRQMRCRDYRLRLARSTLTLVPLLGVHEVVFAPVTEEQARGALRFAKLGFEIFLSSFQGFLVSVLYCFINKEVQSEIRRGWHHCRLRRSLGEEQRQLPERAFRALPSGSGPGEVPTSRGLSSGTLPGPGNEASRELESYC
Put plainly: Human GIP receptor (GIP R) activity assay, cAMP induction (AlphaScreen cAMP kit). The class given is cell-based. The method, then: Human GIP Receptor (GIP R) and GLP-1 Receptor (GLP-1 R) Activity Assay
In vitro effects of peptide conjugates of the invention were assessed by measuring the induction of cAMP following stimulation of the respective receptor by GIP, GLP1 or analogues of these, as outlined in the invention, using the AlphaSceen® cAMP kit from Perkin-Elmer according to instructions. Briefly. HEK293 cells expressing the human GIP R or GLP-1 R (stable cell lines generated through transfection of the cDNA for human GIP R or GLP-1 and selection of stable clones) were seeded at 30,000 cells/well in 96-well microtiter plates coated with 0.01% poly-L-lysine, and grown for 1 day in culture in 200 μl growth medium (DMEM, 10% FCS, Penicillin (100 IU/ml), Streptomycin (100 μg/ml)). On the day of analysis, growth medium was removed and the cells were washed once with […] Tyrode's buffer (Tyrode's Salts (9.6 g/1), 10 mM HEPES, pH 7.4). […] The Assay buffer was removed and cells are lysed in 80 μl Lysis buffer (0.1% w/v BSA, 5 mM HEPES, 0.3% v/v Tween-20) per well. From each well 10 μl lysed cells was transferred to a 384-well plate and mixed with 15 μl bead-mix (1 Unit/15 μl anti-cAMP Acceptor Beads, 1 Unit/15 μl Donor Beads, and 1 Unit/15 μl Biotinylated cAMP in Assay Buffer). The plates were mixed and incubated in the dark for an hour at room temperature before measuring using an Envision™ plate reader (Perkin-Elmer).

Where [3] appears, read: HEK293 cells expressing the human GIP R, cAMP induction, 15 min at 37° C., average values of multiple determinations, read-out: GIP R (EC50 in nM).

Structures are written as SMILES. Read-outs that look alike come from different tables or passages of the source. Numbered stars: 1 amine (or outer) side, 2 acyl side, 3 side chain; on linkers, the order of the positions; unused ones are H or OH. Square brackets hold non-standard residues; d marks the D form. Side chains are listed from the residue outwards. Peptide text beside a SMILES is read from it. * marks the point of attachment. γGlu = O=C(O)[C@H](CCC(=O)[*:2])N[*:1]; Palmitoyl = CCCCCCCCCCCCCCCC(=O)*; Aib = CC(C)(N)C(=O)O

Broadly, the EC50 is the concentration giving half of the maximal effect.

T1 sequence (P43220 24-463): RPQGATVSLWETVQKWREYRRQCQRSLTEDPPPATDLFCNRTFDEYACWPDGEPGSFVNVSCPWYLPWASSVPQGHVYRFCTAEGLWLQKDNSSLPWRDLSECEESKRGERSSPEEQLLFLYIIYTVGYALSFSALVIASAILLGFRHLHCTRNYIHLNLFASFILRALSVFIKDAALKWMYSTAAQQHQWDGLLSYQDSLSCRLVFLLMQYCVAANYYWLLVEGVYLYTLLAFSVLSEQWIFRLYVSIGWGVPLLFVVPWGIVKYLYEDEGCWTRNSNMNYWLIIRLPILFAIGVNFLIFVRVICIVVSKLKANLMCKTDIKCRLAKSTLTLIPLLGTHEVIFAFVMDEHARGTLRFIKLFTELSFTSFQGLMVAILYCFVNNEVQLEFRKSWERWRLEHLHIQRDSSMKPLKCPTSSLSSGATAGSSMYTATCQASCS

Regarding `CC[C@H](C)[C@H](NC(=O)[C@H](CCCCN)NC(=O)[C@H](CC(=O)O)NC(=O)[C@H](CC(C)C)NC(=O)[C@H](C)NC(=O)[C@@H](NC(=O)[C@H](CO)NC(=O)[C@H](Cc1ccc(O)cc1)NC(=O)[C@H](CC(=O)O)NC(=O)[C@H](CO)NC(=O)[C@@H](NC(=O)[C@H](Cc1ccccc1)NC(=O)[C@@H](NC(=O)CNC(=O)[C@H](CCC(=O)O)NC(=O)C(C)(C)NC(=O)[C@@H](N)Cc1ccc(O)cc1)[C@@H](C)O)[C@@H](C)O)[C@@H](C)CC)C(=O)N[C@@H](C)C(=O)N[C@@H](CCC(N)=O)C(=O)N[C@@H](CCCNC(=N)N)C(=O)N[C@@H](C)C(=O)N[C@@H](Cc1ccccc1)C(=O)N[C@H](C(=O)N[C@@H](CC(N)=O)C(=O)N[C@@H](Cc1c[nH]c2ccccc12)C(=O)N[C@@H](CC(C)C)C(=O)N[C@H](C(=O)N[C@@H](C)C(=O)NC(C)(C)C(=O)N[C@@H](CCCCN)C(N)=O)C(C)C)C(C)C` [Compound 3] (H-Y[Aib]EGTFTSDYSIALDKIAQRAFVNWLVA[Aib]K-NH2), the results for the EC50 in test [1] and in test [2] (setting [3]) were 0.022 nM and 0.015 nM, respectively.

On to `CC[C@H](C)[C@H](NC(=O)[C@H](CO)NC(=O)[C@H](Cc1ccc(O)cc1)NC(=O)[C@H](CC(=O)O)NC(=O)[C@H](CO)NC(=O)[C@@H](NC(=O)[C@H](Cc1ccccc1)NC(=O)[C@@H](NC(=O)CNC(=O)[C@H](CCC(=O)O)NC(=O)C(C)(C)NC(=O)[C@@H](N)Cc1ccc(O)cc1)[C@@H](C)O)[C@@H](C)O)C(=O)N[C@@H](Cc1ccc(O)cc1)C(=O)N[C@@H](CC(C)C)C(=O)N[C@@H](CCC(=O)O)C(=O)N[C@@H](CCCCN)C(=O)N[C@@H](CCCCN)C(=O)N[C@@H](C)C(=O)N[C@@H](C)C(=O)N[C@@H](Cc1c[nH]cn1)C(=O)N[C@@H](CC(=O)O)C(=O)N[C@@H](Cc1ccccc1)C(=O)N[C@H](C(=O)N[C@@H](CCC(=O)O)C(=O)N[C@@H](Cc1c[nH]c2ccccc12)C(=O)N[C@@H](CC(C)C)C(=O)N[C@@H](CC(C)C)C(=O)N[C@@H](CO)C(=O)N[C@@H](C)C(N)=O)C(C)C` [Compound 38] (H-Y[Aib]EGTFTSDYSIYLEKKAAHDFVEWLLSA-NH2), for which the EC50 in test [1] was found to be 0.018 nM; in test [2] (setting [3]), 0.007 nM. For `CC[C@H](C)[C@H](NC(=O)[C@H](CO)NC(=O)[C@H](Cc1ccc(O)cc1)NC(=O)[C@H](CC(=O)O)NC(=O)[C@H](CO)NC(=O)[C@@H](NC(=O)[C@H](Cc1ccccc1)NC(=O)[C@@H](NC(=O)CNC(=O)[C@H](CCC(=O)O)NC(=O)C(C)(C)NC(=O)[C@@H](N)Cc1ccc(O)cc1)[C@@H](C)O)[C@@H](C)O)C(=O)N[C@@H](Cc1ccc(O)cc1)C(=O)N[C@@H](CC(C)C)C(=O)N[C@@H](CC(=O)O)C(=O)N[C@@H](CCCCN)C(=O)N[C@@H](CCCCN)C(=O)N[C@@H](C)C(=O)N[C@@H](C)C(=O)N[C@@H](Cc1c[nH]cn1)C(=O)N[C@@H](CC(=O)O)C(=O)N[C@@H](Cc1ccccc1)C(=O)N[C@H](C(=O)N[C@@H](CCC(=O)O)C(=O)N[C@@H](Cc1c[nH]c2ccccc12)C(=O)N[C@@H](CC(C)C)C(=O)N[C@@H](CC(C)C)C(=O)N[C@@H](CO)C(=O)N[C@@H](C)C(N)=O)C(C)C` [Compound 42] (H-Y[Aib]EGTFTSDYSIYLDKKAAHDFVEWLLSA-NH2), in that order: 0.012 nM and 0.007 nM. In test [2], `CC[C@H](C)[C@H](NC(=O)[C@H](CCCCN)NC(=O)[C@H](CCC(=O)O)NC(=O)[C@H](CC(C)C)NC(=O)[C@H](Cc1ccc(O)cc1)NC(=O)[C@@H](NC(=O)[C@H](CO)NC(=O)[C@H](Cc1ccc(O)cc1)NC(=O)[C@H](CC(=O)O)NC(=O)[C@H](CO)NC(=O)[C@@H](NC(=O)[C@H](Cc1ccccc1)NC(=O)[C@@H](NC(=O)CNC(=O)[C@H](CCC(=O)O)NC(=O)C(C)(C)NC(=O)[C@@H](N)Cc1ccc(O)cc1)[C@@H](C)O)[C@@H](C)CC)[C@@H](C)CC)C(=O)N[C@@H](C)C(=O)N[C@@H](C)C(=O)N[C@@H](CCCCN)C(=O)N[C@@H](CCC(=O)O)C(=O)N[C@@H](Cc1ccccc1)C(=O)N[C@H](C(=O)N[C@@H](CC(N)=O)C(=O)N[C@@H](Cc1c[nH]c2ccccc12)C(=O)N[C@@H](CC(C)C)C(=O)N[C@@H](CC(C)C)C(=O)N[C@@H](C)C(=O)N[C@@H](CCC(N)=O)C(=O)N[C@@H](CCCCN)C(N)=O)C(C)C` [Compound 4] (H-Y[Aib]EGTFISDYSIYLEKIAAKEFVNWLLAQK-NH2) returned an EC50 of 0.022 nM.

Turning to `CC[C@H](C)[C@H](NC(=O)[C@H](CO)NC(=O)[C@H](Cc1ccc(O)cc1)NC(=O)[C@H](CC(=O)O)NC(=O)[C@H](CO)NC(=O)[C@@H](NC(=O)[C@H](Cc1ccccc1)NC(=O)[C@@H](NC(=O)CNC(=O)[C@H](CCC(=O)O)NC(=O)C(C)(C)NC(=O)[C@@H](N)Cc1ccc(O)cc1)[C@@H](C)O)[C@@H](C)O)C(=O)N[C@@H](Cc1ccc(O)cc1)C(=O)N[C@@H](CC(C)C)C(=O)N[C@@H](CC(=O)O)C(=O)N[C@@H](CCCCN)C(=O)N[C@@H](CCCCN)C(=O)N[C@@H](C)C(=O)N[C@@H](CCC(N)=O)C(=O)N[C@@H](CCCCN)C(=O)N[C@@H](CCC(=O)O)C(=O)N[C@@H](Cc1ccccc1)C(=O)N[C@H](C(=O)N[C@@H](CC(N)=O)C(=O)N[C@@H](Cc1c[nH]c2ccccc12)C(=O)N[C@@H](CC(C)C)C(=O)N[C@@H](CC(C)C)C(=O)N[C@@H](C)C(=O)NC(C)(C)C(=O)N[C@@H](CCCCN)C(N)=O)C(C)C` [Compound 19] (H-Y[Aib]EGTFTSDYSIYLDKKAQKEFVNWLLA[Aib]K-NH2), the EC50 in test [2] (setting [3]) is 0.015 nM.

As to `CCCCCCCCCCCCCCCC(=O)N[C@@H](CCC(=O)NCCCC[C@H](NC(=O)[C@H](CO)NC(=O)[C@H](CC(=O)O)NC(=O)[C@H](CC(C)C)NC(=O)[C@H](Cc1ccc(O)cc1)NC(=O)[C@@H](NC(=O)[C@H](CO)NC(=O)[C@H](Cc1ccc(O)cc1)NC(=O)[C@H](CC(=O)O)NC(=O)[C@H](CO)NC(=O)[C@@H](NC(=O)[C@H](Cc1ccccc1)NC(=O)[C@@H](NC(=O)CNC(=O)[C@H](CCC(=O)O)NC(=O)C(C)(C)NC(=O)[C@@H](N)Cc1ccc(O)cc1)[C@@H](C)O)[C@@H](C)O)[C@@H](C)CC)C(=O)N[C@@H](C)C(=O)N[C@@H](C)C(=O)N[C@@H](Cc1c[nH]cn1)C(=O)N[C@@H](CC(=O)O)C(=O)N[C@@H](Cc1ccccc1)C(=O)N[C@H](C(=O)N[C@@H](CCC(=O)O)C(=O)N[C@@H](Cc1c[nH]c2ccccc12)C(=O)N[C@@H](CC(C)C)C(=O)N[C@@H](CC(C)C)C(=O)N[C@@H](CCCNC(=N)N)C(=O)N[C@@H](C)C(N)=O)C(C)C)C(=O)O` [Compound 47] (H-Y[Aib]EGTFTSDYSIYLDSK([γGlu-Palmitoyl])AAHDFVEWLLRA-NH2), the EC50 in test [2] (setting [3]) amounted to 0.096 nM. On to `CC[C@H](C)[C@H](NC(=O)[C@H](CO)NC(=O)[C@H](Cc1ccc(O)cc1)NC(=O)[C@H](CC(=O)O)NC(=O)[C@H](CO)NC(=O)[C@@H](NC(=O)[C@H](Cc1ccccc1)NC(=O)[C@@H](NC(=O)CNC(=O)[C@H](CCC(=O)O)NC(=O)C(C)(C)NC(=O)[C@@H](N)Cc1ccc(O)cc1)[C@@H](C)O)[C@@H](C)O)C(=O)N[C@@H](Cc1ccc(O)cc1)C(=O)N[C@@H](CC(C)C)C(=O)N[C@@H](CC(=O)O)C(=O)N[C@@H](CO)C(=O)N[C@@H](CCCCN)C(=O)N[C@@H](C)C(=O)N[C@@H](CCC(N)=O)C(=O)N[C@@H](CCCNC(=N)N)C(=O)N[C@@H](C)C(=O)N[C@@H](Cc1ccccc1)C(=O)N[C@H](C(=O)N[C@@H](CC(N)=O)C(=O)N[C@@H](Cc1c[nH]c2ccccc12)C(=O)N[C@@H](CC(C)C)C(=O)N[C@@H](CC(C)C)C(=O)N[C@@H](C)C(=O)NC(C)(C)C(=O)N[C@@H](CCCCN)C(N)=O)C(C)C` [Compound 16] (H-Y[Aib]EGTFTSDYSIYLDSKAQRAFVNWLLA[Aib]K-NH2), for which the EC50 worked out at 0.012 nM in test [1] and 0.053 nM in test [2] (setting [3]).

The record behind these values is patent publication US10100097B2, “GIP-GLP-1 dual agonist compounds and methods” (Zealand Pharma A/S, priority 2012, dated 2018).
